Tested on: winter wheat (Vershin variety)
Experiment: Winter wheat seed treatment with BHMPA salts: germinating power (length and mass of roots and sprouts)
Format: in vivo
Description: Experimental versions—soaking seeds in BHMPA solutions and solutions of BHMPA Ca, Mg, Na, Co, Mn, Cu, and Zn salts at 1·10^−6-1·10^−12% concentrations (doses). The studies were conducted in laboratory in Petri dishes; seed bed—two layers of filter paper. 50 seeds soaked in water (control) and in the solutions of the tested compounds (experimental) were placed into each dish. Wheat, corn, and rice seeds were exposed for one hour.
Seed germination energy and rate were calculated in percent as an arithmetic mean of the four experimental results (germination energy on the 4th day, wheat germination on the 8th day, rice and corn germination—on the 7th day). Germination was determined based on the germinating power indicators (length of the roots and sprouts and their wet and dry mass per 100 shoots).
The effect of pre-sowing seed treatment with the claimed BHMPA salts of biogenic metals was studied on winter wheat (Vershin variety), corn (Krasnodar 385 MV variety), and rice (Diamant variety).
The above data describe the seed viability only at the initial stage of germination, while the germination ability at the later stage of germination is defined by the initial germinating power. The method for the determination of the germinating power comprises measuring the height of the sprouts and primary roots, as well as the biomass and the dry mass thereof per 100 seedlings. [M. A. Kartuzova. Initial Germinating Power as Method of Biological Assessment of Seed Quality. Selection and Seed Farming, #2, 1953].

[1] = comparative study, 1·10^−10% solution

O.O.O=P([O-])(CO)CO.O=P([O-])(CO)CO.[Co+2] [Co-salt, Cobalt BHMPA Salt]
Length, root (1·10^−6% solution): 6.0 cm | Length, root, + % to control (1·10^−6% solution): −5% | Length, sprout (1·10^−6% solution): 5.1 cm | Length, sprout, + % to control (1·10^−6% solution): −4% | Mass, dry, root (1·10^−6% solution): 0.43 g/100 plantlings | Mass, dry, root, + % to control (1·10^−6% solution): −6.5% | Mass, dry, sprout (1·10^−6% solution): 0.41 g/100 plantlings | Mass, dry, sprout, + % to control (1·10^−6% solution): −9% | Mass, wet, root (1·10^−6% solution): 2.99 g/100 plantlings | Mass, wet, root, + % to control (1·10^−6% solution): 3.5% | Mass, wet, sprout (1·10^−6% solution): 3.30 g/100 plantlings | Mass, wet, sprout, + % to control (1·10^−6% solution): −3.5% | Length, root (1·10^−7% solution): 6.3 cm | Length, root, + % to control (1·10^−7% solution): 0% | Length, sprout (1·10^−7% solution): 5.4 cm | Length, sprout, + % to control (1·10^−7% solution): 2% | Mass, dry, root (1·10^−7% solution): 0.50 g/100 plantlings | Mass, dry, root, + % to control (1·10^−7% solution): 9% | Mass, dry, sprout (1·10^−7% solution): 0.45 g/100 plantlings | Mass, dry, sprout, + % to control (1·10^−7% solution): 0% | Mass, wet, root (1·10^−7% solution): 3.06 g/100 plantlings | Mass, wet, root, + % to control (1·10^−7% solution): 6% | Mass, wet, sprout (1·10^−7% solution): 3.47 g/100 plantlings | Mass, wet, sprout, + % to control (1·10^−7% solution): 1.5% | Length, root (1·10^−8% solution): 6.4 cm | Length, root, + % to control (1·10^−8% solution): 1.6% | Length, sprout (1·10^−8% solution): 5.5 cm | Length, sprout, + % to control (1·10^−8% solution): 4% | Mass, dry, root (1·10^−8% solution): 0.54 g/100 plantlings | Mass, dry, root, + % to control (1·10^−8% solution): 17% | Mass, dry, sprout (1·10^−8% solution): 0.53 g/100 plantlings | Mass, dry, sprout, + % to control (1·10^−8% solution): 18% | Mass, wet, root (1·10^−8% solution): 3.29 g/100 plantlings | Mass, wet, root, + % to control (1·10^−8% solution): 14% | Mass, wet, sprout (1·10^−8% solution): 3.74 g/100 plantlings | Mass, wet, sprout, + % to control (1·10^−8% solution): 9% | Length, root (1·10^−9% solution): 6.5 cm | Length, root, + % to control (1·10^−9% solution): 3% | Length, sprout (1·10^−9% solution): 5.7 cm | Length, sprout, + % to control (1·10^−9% solution): 7.5% | Mass, dry, root (1·10^−9% solution): 0.55 g/100 plantlings | Mass, dry, root, + % to control (1·10^−9% solution): 19.5% | Mass, dry, sprout (1·10^−9% solution): 0.57 g/100 plantlings | Mass, dry, sprout, + % to control (1·10^−9% solution): 27% | Mass, wet, root (1·10^−9% solution): 3.35 g/100 plantlings | Mass, wet, root, + % to control (1·10^−9% solution): 16% | Mass, wet, sprout (1·10^−9% solution): 4.04 g/100 plantlings | Mass, wet, sprout, + % to control (1·10^−9% solution): 18% | Length, root (1·10^−10% solution): 6.6 cm | Length, root, + % to control (1·10^−10% solution): 5% | Length, sprout (1·10^−10% solution): 6.1 cm | Length, sprout, + % to control (1·10^−10% solution): 15% | Mass, dry, root (1·10^−10% solution): 0.56 g/100 plantlings | Mass, dry, root, + % to control (1·10^−10% solution): 22% | Mass, dry, sprout (1·10^−10% solution): 0.67 g/100 plantlings | Mass, dry, sprout, + % to control (1·10^−10% solution): 49% | Mass, wet, root (1·10^−10% solution): 3.57 g/100 plantlings | Mass, wet, root, + % to control (1·10^−10% solution): 23.5% | Mass, wet, sprout (1·10^−10% solution): 4.18 g/100 plantlings | Mass, wet, sprout, + % to control (1·10^−10% solution): 22% | Length, root (1·10^−11% solution): 6.5 cm | Length, root, + % to control (1·10^−11% solution): 3% | Length, sprout (1·10^−11% solution): 5.9 cm | Length, sprout, + % to control (1·10^−11% solution): 11% | Mass, dry, root (1·10^−11% solution): 0.54 g/100 plantlings | Mass, dry, root, + % to control (1·10^−11% solution): 17% | Mass, dry, sprout (1·10^−11% solution): 0.56 g/100 plantlings | Mass, dry, sprout, + % to control (1·10^−11% solution): 24% | Mass, wet, root (1·10^−11% solution): 3.33 g/100 plantlings | Mass, wet, root, + % to control (1·10^−11% solution): 15% | Mass, wet, sprout (1·10^−11% solution): 3.78 g/100 plantlings | Mass, wet, sprout, + % to control (1·10^−11% solution): 10.5% | Length, root (1·10^−12% solution): 6.2 cm | Length, root, + % to control (1·10^−12% solution): −1.5% | Length, sprout (1·10^−12% solution): 5.4 cm | Length, sprout, + % to control (1·10^−12% solution): 2% | Mass, dry, root (1·10^−12% solution): 0.52 g/100 plantlings | Mass, dry, root, + % to control (1·10^−12% solution): 13% | Mass, dry, sprout (1·10^−12% solution): 0.48 g/100 plantlings | Mass, dry, sprout, + % to control (1·10^−12% solution): 7% | Mass, wet, root (1·10^−12% solution): 3.06 g/100 plantlings | Mass, wet, root, + % to control (1·10^−12% solution): 6% | Mass, wet, sprout (1·10^−12% solution): 3.49 g/100 plantlings | Mass, wet, sprout, + % to control (1·10^−12% solution): 2% | Length, root [1]: 10.4 cm | Length, root, + % to control [1]: 20% | Length, sprout [1]: 7.4 cm | Length, sprout, + % to control [1]: 19% | Mass, dry, root [1]: 0.68 g/100 plantlings | Mass, dry, root, + % to control [1]: 10% | Mass, dry, sprout [1]: 0.55 g/100 plantlings | Mass, dry, sprout, + % to control [1]: 8% | Mass, wet, root [1]: 5.97 g/100 plantlings | Mass, wet, root, + % to control [1]: 65% | Mass, wet, sprout [1]: 5.16 g/100 plantlings | Mass, wet, sprout, + % to control [1]: 30%

— patent US10781224B2, “Bis(oxymethyl)phosphinic acid and biogenic metal salts thereof as regulators of plant growth and development” (priority 2016, dated 2020)
